Results reported in ChEMBL document CHEMBL3588815, “Distinct Temporal Fingerprint for Cyclic Adenosine Monophosphate (cAMP) Signaling of Indole-2-carboxamides as Allosteric Modulators of the Cannabinoid Receptors” (J Med Chem, 2015).
The source made the active and inactive calls. The rule behind the calls is not given here.

Experiments:
Cannabinoid receptor 1 [1] = target: T1, Cannabinoid receptor 1 (Homo sapiens, UniProt P21554); assay: Activity at hemagglutinin-tagged human CB1 receptor expressed in HEK293 cells assessed as effect on forskolin-induced cAMP accumulation in presence of CP55,940 by cAMP BRET assay; type: functional, cell-based
Cannabinoid receptor 1 [2] = target: T1, Cannabinoid receptor 1; assay: Activity at hemagglutinin-tagged human CB1 receptor expressed in HEK293 cells assessed as effect on forskolin-induced cAMP accumulation after 5 mins in presence of CP55,940 by cAMP BRET assay; type: functional, cell-based
Cannabinoid receptor 1 [3] = target: T1, Cannabinoid receptor 1; assay: Activity at hemagglutinin-tagged human CB1 receptor expressed in HEK293 cells assessed as effect on forskolin-induced cAMP accumulation after 10 mins in presence of CP55,940 by cAMP BRET assay; type: functional, cell-based
Cannabinoid receptor 1 [4] = target: T1, Cannabinoid receptor 1; assay: Activity at hemagglutinin-tagged human CB1 receptor expressed in HEK293 cells assessed as effect on forskolin-induced cAMP accumulation after 15 mins in presence of CP55,940 by cAMP BRET assay; type: functional, cell-based
Cannabinoid receptor 1 [5] = target: T1, Cannabinoid receptor 1; assay: Inverse agonist activity at hemagglutinin-tagged human CB1 receptor expressed in HEK293 cells assessed as effect on forskolin-induced cAMP accumulation after 5 to 15 mins in presence of CP55,940 by cAMP BRET assay; type: functional, cell-based
Cannabinoid receptor 1 [6] = target: T1, Cannabinoid receptor 1; assay: Activity at human CB1 receptor expressed in AtT20 cells assessed as effect on 1 uM CP55,940-induced peak hyperpolarization up to 10 uM by membrane potential assay; type: cell-based
Cannabinoid receptor 1 [7] = target: T1, Cannabinoid receptor 1; assay: Activity at human CB1 receptor expressed in AtT20 cells assessed as increase in rate of repolarization at 0.1 to 10 uM in presence of 1 uM CP55,940 by membrane potential assay; type: cell-based
Cannabinoid receptor 1 [8] = target: T1, Cannabinoid receptor 1; assay: Inverse agonist activity at hemagglutinin-tagged human CB1 receptor expressed in HEK293 cells assessed as increase in forskolin-induced cAMP accumulation in absence of CP55,940 at 31.6 uM by cAMP BRET assay; type: functional, cell-based
Cannabinoid receptor 2 [9] = target: T2, Cannabinoid receptor 2 (Homo sapiens, UniProt P34972); assay: Activity at hemagglutinin-tagged human CB2 receptor expressed in HEK293 cells assessed as increase in forskolin-induced cAMP accumulation in absence of CP55,940 by cAMP BRET assay; type: functional, cell-based
Cannabinoid receptor 1 [10] = target: T1, Cannabinoid receptor 1; assay: Allosteric modulator activity at hemagglutinin-tagged human CB1 receptor expressed in HEK293 cells assessed as effect on CP55,940-induced inhibition of forskolin-induced cAMP accumulation by kinetic cAMP assay; type: functional, cell-based
Cannabinoid receptor 1 [11] = target: T1, Cannabinoid receptor 1; assay: Allosteric agonist activity at hemagglutinin-tagged human CB1 receptor expressed in HEK293 cells assessed as effect on forskolin-induced cAMP accumulation at 10 uM by kinetic cAMP assay; type: functional, cell-based
Cannabinoid receptor 2 [12] = target: T2, Cannabinoid receptor 2; assay: Allosteric modulator activity at hemagglutinin-tagged human CB2 receptor expressed in Flp-In-293 cells assessed as effect on CP55,940-induced inhibition of forskolin-induced cAMP accumulation by kinetic cAMP assay; type: functional, cell-based
Cannabinoid receptor 2 [13] = target: T2, Cannabinoid receptor 2; assay: Allosteric agonist activity at hemagglutinin-tagged human CB2 receptor expressed in HEK293 cells assessed as effect on forskolin-induced cAMP accumulation at 10 uM by kinetic cAMP assay; type: functional, cell-based
Cannabinoid receptor 1 [14] = target: T1, Cannabinoid receptor 1; assay: Slow antagonist/Inverse agonist activity at hemagglutinin-tagged human CB1 receptor expressed in HEK293 cells assessed as reversal of 1 uM CP55,940-induced inhibition of 5 uM forskolin-induced cAMP accumulation by kinetic cAMP assay; type: functional, cell-based
Cannabinoid receptor 1 [15] = target: T1, Cannabinoid receptor 1; assay: Inverse agonist activity at hemagglutinin-tagged human CB1 receptor expressed in HEK293 cells assessed as increase in forskolin-induced cAMP accumulation in absence of CP55,940 at 10 uM and 31.6 uM by cAMP BRET assay; type: functional, cell-based
Cannabinoid receptor 2 [16] = target: T2, Cannabinoid receptor 2; assay: Antagonist activity against hemagglutinin-tagged human CB2 receptor expressed in HEK293 cells assessed as suppression of CP55,940-induced inhibition of forskolin-induced cAMP accumulation by cAMP BRET assay; type: functional, cell-based
Cannabinoid receptor 2 [17] = target: T2, Cannabinoid receptor 2; assay: Activity at hemagglutinin-tagged human CB2 receptor expressed in HEK293 cells assessed as inhibition of forskolin-induced cAMP accumulation in absence of CP55,940 by cAMP BRET assay; type: functional, cell-based
HEK293 = assay: Reduction in cAMP accumulation in HEK293 cells by kinetic cAMP assay; type: ADME, cell-based; settings: human

T2 sequence (P34972 whole entry): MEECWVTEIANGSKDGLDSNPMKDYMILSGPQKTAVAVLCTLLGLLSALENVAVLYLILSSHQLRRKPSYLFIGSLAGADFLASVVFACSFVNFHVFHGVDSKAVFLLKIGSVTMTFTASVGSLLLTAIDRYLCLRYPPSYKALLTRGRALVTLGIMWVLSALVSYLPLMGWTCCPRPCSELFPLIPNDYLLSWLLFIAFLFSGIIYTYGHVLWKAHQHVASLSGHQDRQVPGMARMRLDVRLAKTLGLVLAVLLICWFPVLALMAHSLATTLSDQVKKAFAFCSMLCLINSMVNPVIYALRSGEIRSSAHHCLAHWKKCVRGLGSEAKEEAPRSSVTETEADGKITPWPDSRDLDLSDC
T1 sequence (P21554 whole entry): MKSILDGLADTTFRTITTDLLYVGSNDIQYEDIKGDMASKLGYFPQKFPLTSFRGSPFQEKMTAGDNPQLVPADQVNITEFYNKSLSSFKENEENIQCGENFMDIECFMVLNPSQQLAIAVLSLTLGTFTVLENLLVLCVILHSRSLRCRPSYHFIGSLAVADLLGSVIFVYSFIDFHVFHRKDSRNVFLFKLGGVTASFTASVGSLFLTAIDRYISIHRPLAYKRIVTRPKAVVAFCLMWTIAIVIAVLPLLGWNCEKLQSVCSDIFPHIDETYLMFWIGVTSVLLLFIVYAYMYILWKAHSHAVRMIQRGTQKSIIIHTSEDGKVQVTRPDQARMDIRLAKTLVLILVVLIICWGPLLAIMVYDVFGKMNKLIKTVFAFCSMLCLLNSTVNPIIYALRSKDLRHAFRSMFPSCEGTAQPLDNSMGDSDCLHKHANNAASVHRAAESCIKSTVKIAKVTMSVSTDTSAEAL

Structure (SMILES)	EC50 (Cannabinoid receptor 1 [1]) [nM]	EC50 (Cannabinoid receptor 1 [2]) [nM]	EC50 (Cannabinoid receptor 1 [3]) [nM]	EC50 (Cannabinoid receptor 1 [4]) [nM]	Activity (Cannabinoid receptor 1 [5])	Activity (Cannabinoid receptor 1 [6])	Activity (Cannabinoid receptor 1 [7])	Activity (Cannabinoid receptor 1 [8])	Activity (Cannabinoid receptor 2 [9])	Activity (Cannabinoid receptor 1 [10])	Activity (Cannabinoid receptor 1 [11])	Activity (Cannabinoid receptor 2 [12])	Activity (Cannabinoid receptor 2 [13])	inhibition (Cannabinoid receptor 1 [14])	Activity (Cannabinoid receptor 1 [15])	inhibition (Cannabinoid receptor 2 [16])	EC50 (Cannabinoid receptor 2 [17]) [nM]	EC50 (Cannabinoid receptor 1 [1]; hek293) [nM]	EC50 (Cannabinoid receptor 1 [3]; hek293) [nM]	Activity (HEK293)
CCc1c(C(=O)NCCc2ccc(N3CCCCC3)cc2)[nH]c2ccccc12	4010	6840	2990	3550	Active	inactive	Active	Active	Active	Active	Active	inactive	Active	–	–	–	–	–	–	–
CCc1c(C(=O)NCCc2ccc([N+](=O)[O-])cc2)[nH]c2ccc(Cl)cc12	1140	3590	660	440	Active	–	–	–	–	Active	Active	Active	inactive	Active	Active	Active	–	–	–	–
CCc1c(C(=O)NCCc2ccc(C)cc2)[nH]c2ccc(Cl)cc12	790	1010	600	470	Active	inactive	Active	–	–	Active	inactive	inactive	inactive	–	–	–	–	–	–	–
CCc1c(C(=O)NCCc2ccc(N3CCCCC3)cc2)[nH]c2ccc(Cl)cc12	2240	10600	2090	640	Active	inactive	Active	–	–	Active	Active	inactive	inactive	–	Active	–	–	–	–	–
O=C(NCCc1ccc(Cl)cc1)c1cc2cc(Cl)ccc2[nH]1	–	–	–	–	–	–	–	–	–	inactive	inactive	inactive	inactive	–	–	–	–	–	–	–
CC(O)c1c(C(=O)NCCc2ccc(N3CCCCC3)cc2)[nH]c2ccc(Cl)cc12 (centres undefined)	2660	13400	2970	1510	Active	–	–	–	–	Active	Active	inactive	inactive	–	Active	–	–	–	–	–
CCc1c(C(=O)NCCc2ccc(N3CCCC3)cc2)[nH]c2ccc(Cl)cc12	–	–	–	–	–	–	–	–	–	inactive	inactive	inactive	inactive	Active	–	–	–	–	–	–
CCc1c(C(=O)OCCc2ccc(N3CCCCC3)cc2)[nH]c2ccc(Cl)cc12	–	–	–	–	–	–	–	–	–	inactive	inactive	inactive	Active	–	–	–	130	–	–	–
CCc1c(C(=O)NCCc2ccc(Cl)cc2)[nH]c2ccc(Cl)cc12	3420	8180	1840	20000	Active	inactive	Active	–	–	Active	inactive	inactive	inactive	–	–	–	–	–	–	–
O=C(NCCc1ccc([N+](=O)[O-])cc1)c1cc2cc(Cl)ccc2[nH]1	–	–	–	–	–	–	–	–	–	Active	inactive	inactive	inactive	–	–	–	–	–	–	–
CCc1c(C(=O)NCCc2ccc(F)cc2)[nH]c2ccc(Cl)cc12	4990	7370	4580	8960	Active	–	–	–	–	Active	inactive	inactive	inactive	–	–	–	–	–	–	–
CCc1c(C(=O)OCCc2ccc(NC)cc2)[nH]c2ccc(Cl)cc12	–	< 10000	–	< 10000	–	–	–	–	–	Active	inactive	inactive	inactive	–	–	–	–	< 10000	< 10000	–
CCc1c(C(=O)NCCc2ccc(N)cc2)[nH]c2ccc(Cl)cc12	–	–	–	–	–	–	–	–	–	inactive	Active	Active	Active	–	–	–	–	–	–	Toxic
CCc1c(C(=O)NCCc2ccc(N(C)C)cc2)[nH]c2ccc(Cl)cc12	600	3430	430	210	Active	–	–	–	–	Active	Active	inactive	inactive	Active	Active	–	–	–	–	–
O=C(NCCc1ccc(N2CCCCC2)cc1)c1cc2cc(Cl)ccc2[nH]1	–	–	–	–	–	–	–	–	–	inactive	inactive	inactive	inactive	–	–	–	–	–	–	–
